Data on 12 molecules can be found in PMC3775972 (Wound repair and regeneration : official publication of the …, 2013).

The subject of series [1] is 3T3 mouse fibroblasts. As to conditions: PDGF 2 nM, reference treatment; cited from earlier work.
Series [2] relates to hybridoma mouse cells. As to conditions: nM concentrations; cited from earlier work.
Series [3] deals with 3T3 mouse fibroblasts. The series can be described thus: Scratch wound closure. Particulars: for Scratch wound closure at 5 μM, %: 12 h incubation, mean ± SEM; for Fibroblast migration / scratch wound closure activity (in words): dose dependence at 0.1–10 μM, 12 h. Format: cell-based.
For series [4], the system named is 3T3 mouse fibroblasts. The series can be described thus: Fibroblast viability / cytotoxicity assay. Format: cell-based. As to conditions: for pIC50: read-out: Cell cytotoxicity, IC, MTT, 0.3–30 μM for 4 h.
The test system of series [5] is 3T3 mouse fibroblasts. The series can be described thus: Fibroblast proliferation assay. Format: cell-based. Particulars: 24 h, BrdU, mean ± SEM.
The subject of series [6] is TNF-α mRNA. The series can be described thus: Real time PCR of wound tissue, TNF-α. The format is in vivo. As to conditions: d 10 post-wounding, 10 μg/mouse topical daily.
Series [7] relates to full thickness dermal wound in C57BL/6J mice. The series can be described thus: Mouse model of cutaneous wound healing. Format: in vivo.
Series [8] has as its system T-lymphoblastic leukaemia CEM cells. Particulars: read-out: IC50, cytotoxicity; cited from earlier work.
The subject of series [9] is ICAM-1 mRNA. The series can be described thus: Real time PCR of wound tissue, ICAM-1. Format: in vivo. Particulars: d 10 post-wounding, 10 μg/mouse topical daily.
In series [10] the test system is K562 cancer cell line. Particulars: cited from earlier work.
In series [11] the test system is HOS cancer cell line. As to conditions: cited from earlier work.
For series [12], the system named is RPMI 8226 cancer cells. Particulars: read-out: IC50, cytotoxicity; RPMI 8226 cells; cited from earlier work.
The test system of series [13] is phospho-Akt1(Ser473). The series can be described thus: Western blot of edge-of-the-wound tissue, Akt phosphorylation. The format is in vivo. Particulars: 10 μg/mouse topical daily.
Series [14] deals with A549 cancer cell line. As to conditions: cited from earlier work.
Series [15] can be described thus: Body weight and food intake after wounding. Format: in vivo. As to conditions: 10 μg/mouse topically daily, d 2 post-wounding.
Series [16] has as its system macrophage cell culture. The series can be described thus: LPS-stimulated inflammation in macrophage cell culture. The format is cell-based. As to conditions: preliminary data, not shown.
Series [17] relates to TGF-β mRNA. The series can be described thus: Real time PCR of wound tissue, TGF-β. Format: in vivo. As to conditions: d 10 post-wounding, 10 μg/mouse topical daily.
Series [18] has as its system primary mouse keratinocytes. The series can be described thus: Primary keratinocyte proliferation assay. Format: cell-based. As to conditions: for Proliferation of primary keratinocytes: versus vehicle (ethanol); for Proliferation of primary keratinocytes, dose dependence: respective doses, Alamar Blue.
For series [19], the system named is healthy rats. As to conditions: oral administration, associated with activation of Akt; cited from earlier work.
Series [20] deals with HeLa cancer cell line. Particulars: cited from earlier work.
Series [21] is described as follows: Fibroblast viability / cytotoxicity assay. Format: cell-based, mouse. As to conditions: mouse, NIH 3T3 fibroblasts (ATCC CCL-92).
Series [22] relates to human cancer cell lines. Particulars: below 50 μM; cited from earlier work.

pIC50: −log10 of the molar value.

With PDGF, the “Scratch wound closure, %” value in series [1] is 64.8 ± 1.7 %.

In the case of `CC(C)[C@@H](C)[C@@H](O)[C@H](O)[C@@H](C)[C@H]1CC[C@H]2[C@@H]3COC(=O)[C@H]4C[C@H](O)[C@H](O)C[C@]4(C)[C@H]3CC[C@]12C` [24-epibrassinolide], the “Proportions of viable hybridoma mouse cells” value in [2] was “increased”.

For `CC(C)[C@H](C)[C@H](O)[C@@H](O)[C@@H](C)[C@H]1CC[C@H]2[C@@H]3COC(=O)[C@H]4C[C@@H](O)[C@H](O)C[C@]4(C)[C@H]3CC[C@]12C` [Compound 8, (22S,23S,24R)-2α,3α,22,23-tetrahydroxy-24-methyl-^2-homo-7-oxa-5α-cholestan-6-one], the “Scratch wound closure at 5 μM, %” value in series [3] worked out at 13.2 ± 1.5%. In addition, in [4], the pIC50 is < 4.52. The “Cell proliferation at 5 μM, % of control” value in series [5] is listed as 31.9 ± 5.3 % of control.

`CC[C@@H](C(C)C)[C@H](O)[C@@H](O)[C@@H](C)[C@H]1CC[C@H]2[C@@H]3COC(=O)[C@H]4C[C@H](O)[C@H](O)C[C@]4(C)[C@H]3CC[C@]12C` [Compound 1, (22S, 23S, 24S)-2α, 3 α, 22,23-tetrahydroxy-24 ethyl-^2-homo-7-oxo-5α-cholestane-6-one]: in series [6], the “TNF-α mRNA level in wound tissue” value is reported as “nearly complete downregulation”. Moreover, in series [7] (10 μg topical per mouse per day for 10 d, versus vehicle), the Cutaneous wound healing entry is “significantly improved”. Besides, the “Increase in speed of wound closure relative to control mice” value in [7] (d 4, percent of original wound size, 10 μg/mouse topical) came out at 2 fold. Moreover, the figures for the pIC50 in [8], in series [4] and in series [12] were ~4.52, < 4.52 and ~4.52, respectively. Also, the “ICAM-1 mRNA level in wound tissue” value in series [9] was “significant suppression”. The “Cytotoxicity (in words)” value in series [10] is reported as “no cytotoxicity”; in [11] it was “no cytotoxicity”; in series [4] (at or up to 30 μM, the highest concentration tested), “no cytotoxicity”; in [14] it was “no cytotoxicity”; in [20], “no cytotoxicity”. The “Scratch wound closure at 5 μM, %” value in [3] is 30 ± 4.2 %; in [3] (listed as HB) it was 30 ± 4.2%. Moreover, the “Akt-1 phosphorylation in edge-of-the-wound tissue” value in series [13] was “upregulation”. The “Cell proliferation at 5 μM, % of control” value in [5] is 37.7 ± 3.4 % of control. Also, the “Body weight loss associated with injury” value in series [15] was “tendency for HB to reduce weight loss”. In series [16], the “Effect on LPS-stimulated inflammation” value is “no pro- or anti-inflammatory effect”. For the same molecule, in [17], the “TGF-β mRNA level in wound tissue” value is given as “weak effect”. Also, the “Proliferation of primary keratinocytes” value in [18] (3 μM) was “did not reach significance”; in [18] (doses of 0.3 and 10 μM), “significant increase”. Moreover, in series [19], the Anabolic response entry is “selective anabolic response”.

On to `CC[C@@H](C(C)C)[C@@H](O)[C@H](O)[C@@H](C)[C@H]1CC[C@H]2[C@@H]3CC(=O)[C@H]4C[C@H](O)[C@H](O)C[C@]4(C)[C@H]3CC[C@]12C` [(22R, 23R)-homocastasterone, reference compound], for which the pIC50 in series [8] was 4.89.

For the molecule `CC[C@H](C(C)C)[C@H](O)[C@@H](O)[C@@H](C)[C@H]1CC[C@H]2[C@@H]3COC(=O)[C@H]4C[C@H](F)CC[C@]4(C)[C@H]3CC[C@]12C` [Compound 3, (22S,23S,24R)-3α-fluoro-22,23-dihydroxy-24-ethyl-^2-homo-7-oxa-5 α-cholestan-6-one], the “Scratch wound closure at 5 μM, %” value in [3] is recorded as 15.3 ± 2.6%. Further, the pIC50 in series [4] was ~4.52.

Consider `CC[C@@H](C(C)C)[C@H](O)[C@@H](O)[C@@H](C)[C@H]1CC[C@H]2[C@@H]3CC(=O)[C@H]4C[C@H](O)[C@H](O)C[C@]4(C)[C@H]3CC[C@]12C` [Compound 2, (22S, 23S, 24S)-2α, 3α, 22, 23-tetrahydroxy-24-ethyl-5α-cholestan-6-one], for which the “Scratch wound closure at 5 μM, %” value in series [3] was 32.9 ± 4.1 %. The concentration for half-maximal inhibition (IC50) at 4 h in series [21] is > 30 µM. Also, the “Cytotoxicity (in words)” value in series [22] was “weak to no cytotoxicity”.

Regarding `CC(C)[C@@H](C)[C@@H](O)[C@H](O)[C@@H](C)[C@H]1CC[C@H]2[C@@H]3COC(=O)[C@H]4C[C@H](O)[C@H](O)C[C@]4(C)[C@H]3CC[C@]12C` [Compound 9, (22R,23R,24R)-2α,3α,22,23-tetrahydroxy-24-methyl-^2-homo-7-oxa-5α-cholestan-6-one], in [3], the “Scratch wound closure at 5 μM, %” value was 8.1 ± 1.6%. For the same molecule, in series [4], the pIC50 was < 4.52. The “Cell proliferation at 5 μM, % of control” value in [5] is on record as 31.0 ± 2.6 % of control.

As for `CC[C@@H](C(C)C)[C@H](O)[C@@H](O)[C@@H](C)[C@H]1CC[C@H]2[C@@H]3CNC(=O)[C@H]4C[C@H](O)[C@H](O)C[C@]4(C)[C@H]3CC[C@]12C` [Compound 5, (22S,23S,24S)-2α,3α,22,23-tetrahydroxy-24-ethyl-^2-homo-7-aza-5α-cholestan-6-one], in series [3], the “Scratch wound closure at 5 μM, %” value is 13.0 ± 0.7% and the “Fibroblast migration / scratch wound closure activity (in words)” value is “no effect”. Moreover, the pIC50 in [4] is 4.90.

Turning to `CC[C@@H](C(C)C)[C@H](O)[C@@H](O)[C@@H](C)[C@H]1CC[C@H]2[C@@H]3CC(=O)[C@H]4C[C@H](F)CC[C@]4(C)[C@H]3CC[C@]12C` [Compound 4, (22S,23S,24S)-3α-fluoro-22,23-dihydroxy-24-ethyl-5 α-cholestan-6-one], in [3], the “Scratch wound closure at 5 μM, %” value was determined as 27.7 ± 4.0 % and the “Fibroblast migration / scratch wound closure activity (in words)” value was “high activity similar to HB”. Further, the IC50 at 4 h in series [21] was ~30 µM. Further, the “Proliferation of primary keratinocytes, dose dependence” value in series [18] is “dose-dependently decreased”.

On to `CCNC(=O)[C@H]1O[C@@H](n2cnc3c(N)nc(NCCc4ccc(CCC(=O)O)cc4)nc32)[C@H](O)[C@@H]1O` [CGS-21680, reference compound], for which the “TNF-α mRNA level in wound tissue” value in [6] was “remarkable suppression”. Also, the “ICAM-1 mRNA level in wound tissue” value in series [9] is given as “no effect”. Moreover, in series [17], the “TGF-β mRNA level in wound tissue” value is listed as “no effect”.

On to `CC[C@@H](C(C)C)[C@H](O)[C@@H](O)[C@@H](C)[C@H]1CC[C@H]2[C@@H]3CC(=O)N[C@H]4C[C@H](O)[C@H](O)C[C@]4(C)[C@H]3CC[C@]12C` [Compound 6, (22S,23S,24S)-2α,3α,22,23-tetrahydroxy-24-ethyl-^2-homo-6-aza-5α-cholestan-7-one], for which, in [3], the “Scratch wound closure at 5 μM, %” value stood at 30.5 ± 4.2 % and the “Fibroblast migration / scratch wound closure activity (in words)” value is listed as “highest activity at 3 μM”. Further, the pIC50 in series [4] is < 4.52. Further, the “Proliferation of primary keratinocytes, dose dependence” value in [18] was “dose-dependently decreased”.
